According to paper PMC12801355, “Peptide Amphiphiles Hitchhike on Endogenous Biomolecules for Enhanced Cancer Imaging and Therapy” (Advanced Materials (Deerfield Beach, Fla.), 2025):
Values belong to the compound of their own block, whether it stands above or below them. Where a SMILES comes first, the peptide text is derived from it. Where no end group is shown, it is not given here. [ ]: non-standard residue; d: D form. The star is where a group is joined. Dolaproine = CO[C@@H]([C@@H]1CCCN1)[C@@H](C)C(=O)O; Dil = CC[C@H](C)[C@H](NC)[C@@H](CC(=O)O)OC; Palmitoyl = CCCCCCCCCCCCCCCC(=O)*; X1 = C[C@@H](N*)[C@@H](O)c1ccccc1; NMeV = CN[C@H](C(=O)O)C(C)C

Experiments:
[1] = test system: 4T1 tumor; assay: Antitumor effect, 4T1 orthotopic mouse model
Procedure: All experiments were approved by the Oregon Health and Science University (OHSU) Institutional Animal Care and Use Committee (IACUC) (TR01_IP00000674) and conformed to the guidelines set by the United States Animal Welfare Act and the National Institutes of Health. Mice were aged between 3 and 8 months and 20–30 g in weight and were housed in specific pathogen free cages. Human, mouse, or rat cells were injected into nude (The Jackson Laboratory, 002019), NSG mice (The Jackson Laboratory, 005557), Balb/c mice (The Jackson Laboratory, 000651), or C57Bl/6J mice (The Jackson Laboratory, 000664), as specified below. Cells were injected in 100 µL sterile DMEM at a concentration of 0.5–1×10^7 cells mL^−1, unless otherwise specified. For tumor accumulation and biodistribution studies, A375 cells were injected intradermally into the left ears of NSG mice (The Jackson Laboratory, 005557). MCF7 cells were injected into the mammary fat pad of NSG mice. HCT‐116, RG2, and HeLa (wild type or LDL‐R knockout) cells were subcutaneously injected into the left or both flanks of NSG mice. 4T1 cells were injected into the mammary fat pad of Balb/c mice. LLC1, MC38, and TRAMP‐C2 (wild type or SR‐B1 knockout) were injected into C57Bl/6J mice. Patient‐derived xenografts were generated by injecting the patient‐derived cancer cells subcutaneously into the left flank of NSG mice. ApoA1 and LDL‐R knockout mice were purchased from the Jackson Laboratory (002055 and 002207, respectively). MC38 cells were subcutaneously injected into both flanks of these mice. Apc^min and MMTV‐PyMT mice were purchased from the Jackson Laboratory (002020 and 002374). For antitumor activity studies, 4T1 cells were injected into the mammary fat pad of Balb/c mice. HCT‐116 and RG2 cells were subcutaneously injected into the left flanks of nude mice. For antitumor activity studies, HCT‐116 cells were injected in a 1:1 mixture of DMEM and Matrigel (Life Science 354263).
Mice were injected with 4T1, RG2, or HCT‐116 cells as described above. Mice were then treated intravenously with the free MMAE (0.1 or 0.3 mg kg^−1), SA‐E‐MMAE (0.3, 0.6, 0.8, or 1 mg kg^−1) or PBS (10 mM, pH 7.4). 5 doses were given every 2–3 days over 11 days. […] Tumor size and mouse weight were monitored 2–3 times per week until a humane endpoint (tumor size ≈2 cm or >20% body weight loss) or the study endpoint (18, 25, or 120 days for 4T1, RG2, and HCT‐116 studies, respectively). Tumor size was measured in two directions with a caliper rounded to the nearest tenth of a mm. Volume was calculated as a basic sphere of 4/3πr^3.

[2] = Blood circulation in mice; type: in vivo, mouse
Procedure: For blood circulation experiments, Balb/c mice were injected with 100 µL of ICG conjugated PAs or No‐SA, or free ICG (0.5 mM). Then, blood was drawn via the saphenous vein or retro‐orbitally at different time points (immediately after injection to 1 day). […] Blood from wild type mice was collected to prepare calibration curves for each probe. To each 18 µL aliquot of blood, 2 µL of probe stock solution (0.5 mM) was added and incubated at 37 °C for 1 h. The spiked samples were then serially diluted in blood between 50 and 0.1 µM. For fluorescence measurement, 2 µL of each diluted sample was further diluted into 98 µL of PBS, and ICG fluorescence was measured using a TECAN plate reader.

[3] = test system: 4T1 tumor; assay: Tumor accumulation, live IVIS imaging; type: in vivo, mouse; conditions: 50 nmol IV
Procedure: For tumor accumulation studies in subcutaneous (HCT‐116, A375, TRAMP‐C2, MC38, LLC1, RG2, PDX cell lines, wild type or SR‐B1 ‐/‐ TRAMP‐C2, and wild type or LDL‐R ‐/‐ HeLa), intradermal (A375), or fat pad (4T1 and MCF‐7) tumors, cells were implanted as described above. When the tumors reached a size around ≈0.3–1 cm, mice were injected intravenously with 100 µL of ICG conjugated PAs (in PBS, 0.5 mM) or free ICG (in PBS, 0.5 mM). After probe injections, mice were imaged using the IVIS Spectrum (PerkinElmer) with excitation and emission wavelengths of 745 and 820 nm, respectively, at the specified time points. Living Image (PerkinElmer) software was used for all analyses. For MMTV mice experiments, mice were injected intravenously weekly with SA‐E (100 µL PBS, 0.5 mM) between 71 and 85 days of age and imaged 2 days later in the IVIS. […] SA‐E was injected intravenously (100 µL PBS, 0.5 mM), 2 days later the intestinal tissue was harvested, washed, and analyzed in the IVIS for ICG.

[4] = TEM imaging of PA nanostructures; type: physicochemical; conditions: ICG conjugated PA, 200 µM in ultrapure water, negative stain
Procedure: For TEM imaging, PAs conjugated with ICG, Cy5 or MMAE were dissolved in ultrapure water at a concentration of 200 µM. Carbonfilm 200 copper mesh TEM grids were glow‐discharged first. Then, PA solutions (15 µL) were placed on the grids, incubated for 10 min before blotting, and air‐dried. 15 µL of ultrapure water was applied to wash the grid for 3 min. After incubation, the water was removed by blotting from the edge of the grid. For negative staining of the samples, a 0.4% uranyl acetate solution was prepared in ultrapure water and filtered using a 0.1 µm syringe filter. 15 µL of filtered uranyl acetate solution was applied to the grid and incubated for 5 min. Finally, TEM grids were blotted to remove excess stain and dried at room temperature. TEM imaging was performed using a Tecnai or Talos microscope (FEI).

[5] = Fluorescence polarization of PA nanostructures; type: physicochemical; conditions: 10 mol% ICG conjugated PA (20 µM) with unconjugated PA, 200 µM total, PBS; mean ± SEM, 3 wells
Procedure: ICG (10 mol%) containing PA micelles were prepared by mixing ICG‐conjugated PAs with unconjugated or MMAE‐conjugated PAs to achieve a final concentration of 20 µM ICG‐conjugated PAs and 200 µM of total PAs. Aliquots of 100 µL were added to a 96‐well plate (3 wells for each PA). Fluorescence polarization measurements were performed using a microplate reader (TECAN Spark 20 M). The corrected parallel intensity (I par) and perpendicular intensity (Iper) were used to calculate the fluorescence anisotropy (r) using the following equation: r = […].

[6] = test system: 4T1 mouse breast cancer cells; assay: Cellular uptake of Cy5 labeled PAs; type: cell-based
Procedure: To compare the uptake of SA‐E and SA‐K, 1 × 10^5 4T1 cells were grown to near confluency (1–2 days) in 96 well plates with black walls and flat glass bottom. 100% Cy5 conjugated PAs (20 or 10 µM) or 10% Cy5 conjugated PA micelles (10 µM Cy5‐PAs mixed with 90 µM maleimide blocked labeled PAs) were preincubated in 10% FBS containing RPMI for 30 min at 37 °C, wells were aspirated, and 100 µL of media containing PAs were added. The plate was incubated for 30 min for the experiments with 100% Cy5 conjugated PAs. Media were aspirated, wells were washed 3x with 150 µL sterile PBS, and then 100 µL RPMI containing 10% FBS was added to each well. The plate was incubated for 1 h at 37 °C. For 10% and 100% Cy5 micelle uptake comparison, plate was incubated for 2 h at 37 °C with PAs. Then, media containing PAs were aspirated and washed with PBS, as above. Cell nuclei were stained with Hoechst (1:5000 dilution in PBS) for 5 min and then removed. 100 µL of phenol red free RPMI containing 10% FBS was added to each well. […] The microscope incubator was preheated for 30 min to reach 35 °C prior to imaging.
To study the uptake of SA‐E or SA‐K micelles (10% or 100% Cy5 micelles) or No‐SA over time, 4T1 cells were grown to near confluency in a 96 well plate as described above. Cy5 conjugated 100% Cy5 conjugated PAs (20 µM), 10% Cy5 conjugated PAs (10 µM Cy5), or No‐SA (20 µM) or were preincubated in 10% FBS containing RPMI for 30 min at 37 °C. Cell nuclei were stained with Hoechst stain as above. Cell membranes were stained (CellBrite 488, 1:1000 in 10% FBS containing RPMI) for 30 min at 37 °C. Wells were aspirated, and 100 µL of PAs were added to the wells for ≈1 min. Wells were washed with sterile PBS (3x, 150 µL), and Confocal images were taken at different time points (up to 2 h) after PA or No‐SA addition as described above using a 60x objective.

[7] = PA fluorescence in liver homogenates; type: in vitro ADME; conditions: ICG conjugated, 0.1 to 10 µM spiked into mouse liver homogenate, IVIS
Procedure: Liver samples (6.2 g total weight) collected from healthy BALB/cJ mice were placed in a gentleMACS M Tube containing 2 mL of PBS. The M Tube was fitted with a 600 µm mesh strainer, and homogenization was performed using a gentleMACS Dissociator by running a one‐minute program at 1260 rotations per round (rpr) for five cycles. ICG conjugated SA‐E and SA‐K were then spiked into the liver homogenates in a 96‐well plate at final concentrations of 0, 0.1, 0.5, 2.0, 5.0, and 10 µM. Fluorescence signals from the homogenates were measured using an IVIS (PerkinElmer).

[8] = test system: LPs (HDL, LDL, VLDL) and albumin in pooled human plasma; set-up: AUC of all FPLC peaks, lower than SA‐E: unit not given beside the values

Compound: CC[C@H](C)[C@@H]([C@@H](CC(=O)N1CCC[C@H]1[C@H](OC)[C@@H](C)C(=O)N[C@H](C)[C@@H](O)c1ccccc1)OC)N(C)C(=O)[C@@H](NC(=O)[C@@H](NC)C(C)C)C(C)C [free MMAE, Monomethyl auristatin E] (H-[NMeV]V[Dil][Dolaproine]-X1)
- tolerability ([1]; 0.1 mg kg^−1 IV, 5 doses, n = 3): tolerated
- tolerability ([1]; 0.3 mg kg^−1 IV, stopped after the third injection, n = 5): high toxicity with rapid weight loss
- effect on tumor growth ([1]; 0.1 or 0.3 mg kg^−1 IV): slight reduction in tumor growth

- injected dose still in circulation ([2]; wild type (Balb/c) mice, ICG conjugated or free ICG 50 nmol IV, 6 h post injection, blood fluorescence with calibration curve): not detectable
- blood concentration, share of injected dose ([2]; wild type mice, 50 nmol IV, in 30 min): below 1%
- TBR ([3]; all time points): around 1
Compound: CC1(C)C(/C=C/C=C/C=C/C=C2\N(CCCCS(=O)(=O)O)c3ccc4ccccc4c3C2(C)C)=[N+](CCCCS(=O)(=O)[O-])c2ccc3ccccc3c21 [free ICG, indocyanine green]

- diameter of rod‐shaped micelles (TEM) [4]: ≈ 10 nm
- length of rod‐shaped micelles (TEM) [4]: several hundred
- fluorescence anisotropy of ICG in micelles [5]: 0.299 ± 0.008
- fluorescence in liver homogenates, SA‐E versus SA‐K (disassembly) [7]: almost identical fluorescence intensity
- maximum TBR, lower than that of SA‐E ([3]; 4T1 tumor‐bearing mice): approximately two‐fold
- maximum tumor signal, lower than maximum of SA‐E ([3]; 4T1 tumor‐bearing mice): ≈ 6 fold
- total tumor accumulation (AUC of tumor signal), lower than SA‐E ([3]; 4T1 tumor‐bearing mice): ≈ 2.7 fold
- time of maximum tumor fluorescence ([3]; 4T1 tumor‐bearing mice, ICG conjugated): 4 days
- AUC of all FPLC peaks, lower than SA‐E [8]: ≈ 4.5
Compound: CCCCCCCCCCCCCCCC(=O)NCC(=O)NCC(=O)NCC(=O)N[C@@H](Cc1c[nH]cn1)C(=O)N[C@@H](C)C(=O)N[C@@H](C)C(=O)N[C@@H](CC(N)=O)C(=O)NCC(=O)N[C@@H](CCCCN)C(=O)N[C@@H](CCCCN)C(=O)N[C@@H](CS)C(=O)N[C@@H](CCCCN)C(=O)O [SA‐K] (Palmitoyl-GGGHAANGKKCK-OH)
- uptake relative to SA‐E ([6]; Cy5 conjugated PAs, 10% FBS RPMI, 30 min incubation then 1 h, confocal): approximately three‐fold

- TBR compared to SA‐E ([3]; 4T1 tumor‐bearing mice): significantly lower TBR
- clearance from the tumor ([3]; ICG conjugated, 4T1): mostly cleared in 2 days
Compound: GGGHAANGEECE [No‐SA]
- membrane binding and internalization ([6]; Cy5‐conjugated, 20 µM, ≈1 min exposure, imaging up to 2 h): no significant membrane binding or internalization
